Reference: patent US10490837B2, “Bioreactor comprising immobilized enzyme, method for improving activity of immobilized enzyme, and biofuel cell” (TOYOTA JIDOSHA KABUSHIKI KAISHA, priority 2012, dated 2019)
Entries after “also recorded” stand apart in the source; their conditions may differ. Where two headings read alike, the source gives them in different places.

Columns and labels:
[1] = tested on: Glucose dehydrogenase (immobilized enzyme); conditions: substrate glucose, NADP; 1M additive/buffer pH 7.0; 25° C. for 30 minutes
Description: (§1) The solution was stirred at 25° C. for 30 minutes to allow the enzyme to react with the substrate. Then, WST1 and mPMS were added for color development. Absorbance was measured with a spectrophotometer.

[2] = tested on: Formate dehydrogenase (immobilized enzyme); conditions: substrate sodium formate, NAD; 1M additive/buffer pH 7.0; 25° C. for 30 minutes
Description: as §1

[3] = tested on: Formate dehydrogenase (immobilized enzyme); test: Effects of heterocyclic compounds on activity of immobilized formate dehydrogenase (WST1/mPMS, absorbance), Examples 4-8; conditions: for enzyme activity of immobilized enzyme in the presence of the heterocyclic compound (in words): immobilized formate dehydrogenase, Examples 4-8
Description: A support was applied a fibrous base material cut in pieces 1 cm^2 in area, followed by drying. Each piece of fibrous base material was allowed to absorb a liquid obtained by mixing 2.5% glutaraldehyde, 20% poly-L-lysine, 10 mM Tris-HCl (pH 8.0), and formate dehydrogenase, followed by drying. Thus, immobilized enzymes were prepared.
The solution was stirred at 25° C. for 30 minutes to induce a reaction. Then, WST1 and mPMS were added for color development. Absorbance was measured with a spectrophotometer (Infinite M200 manufactured by TECAN).

[4] = tested on: Glutamate dehydrogenase (immobilized enzyme); conditions: substrate monosodium glutamate, NADP; 1M additive/buffer pH 7.0; 25° C. for 30 minutes
Description: as §1

Compound `Cl.c1c[nH]cn1` [Example 1, imidazole HCl] has an OD [1] of 0.4668.

For `Cl.c1c[nH]cn1` [Example 3, imidazole HCl], the OD [2] was 0.5996.

With `O=C1NCCN1` [Example 5, 2-Imidazolidinone] the “enzyme activity of immobilized enzyme in the presence of the heterocyclic compound (in words)” value (“enzyme activity of immobilized enzyme” below) [3] was “excellent enzyme activity; also recorded: significantly improved enzyme activity”.

`N[C@@H](Cc1c[nH]cn1)C(=O)O` [Example 8, Histidine] was tested, and the OD ([3]; 0.2M heterocyclic compound, 25° C. for 30 minutes) was 1.1902 and the “enzyme activity of immobilized enzyme” value [3] was “excellent enzyme activity”.

For “sodium phosphate buffer [Comparative Example 3, reference compound]”, the OD [2] was 0.4134.

With `c1cnccn1` [Example 4, Pyrazine] the “enzyme activity of immobilized enzyme” value [3] was “excellent enzyme activity; also recorded: significantly improved enzyme activity”.

Work on “sodium phosphate buffer [Comparative Example 1, reference compound]” yielded an OD [1] of 0.1598.

In the case of `C=Cn1ccnc1` [Example 6, 1-Vinylimidazole], the “enzyme activity of immobilized enzyme” value [3] is reported as “excellent enzyme activity; also recorded: significantly improved enzyme activity”.

`Cl.c1c[nH]cn1` [Example 2, imidazole HCl] gave an OD [4] of 1.1707.

Work on “sodium phosphate buffer [reference compound]” yielded an OD [4] of 0.3966.
